Earlier results in patent US20090239285A1, “TANDEM REAPEAT DNA CONSTRUCTS PRODUCING PROTEINS THAT ATTACK PLANT PATHOGENIC VIRUSES, FUNGI, AND BACTERIA BY DISRUPTING TRANSCRIPTION FACTORS ESSENTIAL FOR REPLICATION THEREOF IN PLANTS” (priority 2008, published 2009).

System: rice blast fungus Magnaporthe grisea
Conditions: PA treated plants; doses in range 0.5 mg/mL; cited from earlier work

O=C(O)c1ccccn1 [Picolinic acid, 2-pyridine carboxylic acid]
resistance against M. grisea: enhanced
